Structures can show the parent of a compound that is named as a salt. Where two headings read alike, the source gives them in different places.

For one assay, the system named is CEM/VLB. Nature of the assay: MTT cytotoxicity assay (Examples 1-5). It counts as cell-based, human. Particulars: for IC50: Homo sapiens, read-out: DOX IC50, CEM/VLB. The source says: (§1) Cytotoxicity Assay (Examples 1-5). […] Cell proliferation kit I (MTT) from Roche Diagnostics GmbH (Indianapolis, Ind.) was used for cytotoxicity assays and manufacturers protocol was followed for the assay.
(In general: Tetrazolium dyes change colour on reduction, which living cells bring about.)

The subject of the next assay is CEM. Nature of the assay: MTT cytotoxicity assay (Examples 1-5). Particulars: Homo sapiens, CCRF-CEM. The class given is cell-based, human.
Excerpt: as §1

The next assay has as its system SW620/Ad-300. Nature of the assay: MTT cytotoxicity assay (Examples 1-5). The class given is cell-based, human.
Excerpt: as §1

Assay [1] has as its system SW620 human tumor xenografts. Nature of the assay: Xenograft studies with AMR in nude mice. The class given is in vivo. Particulars: 2 mg/kg. As for the experimental part: Xenograft studies with AMR in nude mice. Male athymic nude (nu/nu) mice of the BALB/c strain (4-5 weeks old) were purchased from Taconic Labs, NY. SW620 colon carcinoma cells (10^6/site) in 0.1 ml of Hank's balanced salt solution were injected subcutaneously into the right flank of the nude mice using a 21 gauge needle. When the tumors reached approximately 0.5 cm^3 size in volume (usually 14 days), chemotherapy with AMR was started involving six animals in each group with almost similar size tumors. […] AMR was dissolved in 1:1 mixture of Cremophor EL and ethanol for administration and the control treatments were doxorubicin dissolved in phosphate dissolved saline and saline alone (0 mg/kg). Tumor size (length and width) was recorded on every fifth day of treatment along with body weight and survival data. Tumor volume was calculated using the following formula: […]
Tumor growth rate was calculated as mean V1/V0 where V1 is the volume on the evaluation day of treatment effect and V0 is that on the first day of treatment. The growth rate index and therapeutic index estimates were calculated using the following formulae:
Therapeutic Ratio=100—Tumor Growth Rate Index (GRI)

`COc1cccc2c1C(=O)c1c(O)c3c(c(O)c1C2=O)C[C@@](O)(C(=O)CO)C[C@@H]3O[C@H]1C[C@H](N)[C@H](O)[C@H](C)O1` [DOX, Doxorubicin hydrochloride, reference compound]: the “resistance to DOX” value is given as “approximately 112 fold” with CEM/VLB (CEM/VLB versus CEM) and “approximately 125 fold” in the assay with SW620/Ad-300 (SW620/Ad-300 versus SW620, based on IC50 values). In addition, the concentration for half-maximal inhibition (IC50) (commonly the point on the concentration scale where inhibition reaches its midpoint) with CEM/VLB (48 hours exposure) was determined as 13.4 µg/mL; in the assay on CEM/VLB (mean ± SD (n = 3)), 23.1 ± 0.78 µM; with CEM (read-out: DOX IC50, 48 hours exposure), 0.12 µg/mL; in the assay with CEM (read-out: DOX IC50, mean ± SD (n = 3)), 0.23 ± 0.02 µM; in the assay on SW620/Ad-300 (Homo sapiens, SW620/AD300, read-out: DOX IC50, SW620/Ad-300, mean ± SD (n = 3)), 28.9 ± 0.95 µM. Besides, the “Survival (%)” value in assay [1] stood at 83.3%.

For the origin of these results see patent US20090203634A1, “Compositions and Uses of Amooranin Compounds” (Variety Children's Hospital d/b/a Miami Children's Hospital, priority 2005, published 2009).
